Results as given in ChEMBL document CHEMBL4507268 (2021).

Assays:
Conditions in all cases: Compound concentration 1.0 uM
[1] = biological target: Dual specificity protein kinase CLK3 (Homo sapiens) (UniProt P49761)
[2] = biological target: cAMP-dependent protein kinase catalytic subunit beta (Homo sapiens) (UniProt P22694)
[3] = biological target: T1, Serine/threonine-protein kinase Nek11 (Homo sapiens) (UniProt Q8NG66)
T1 sequence (whole entry): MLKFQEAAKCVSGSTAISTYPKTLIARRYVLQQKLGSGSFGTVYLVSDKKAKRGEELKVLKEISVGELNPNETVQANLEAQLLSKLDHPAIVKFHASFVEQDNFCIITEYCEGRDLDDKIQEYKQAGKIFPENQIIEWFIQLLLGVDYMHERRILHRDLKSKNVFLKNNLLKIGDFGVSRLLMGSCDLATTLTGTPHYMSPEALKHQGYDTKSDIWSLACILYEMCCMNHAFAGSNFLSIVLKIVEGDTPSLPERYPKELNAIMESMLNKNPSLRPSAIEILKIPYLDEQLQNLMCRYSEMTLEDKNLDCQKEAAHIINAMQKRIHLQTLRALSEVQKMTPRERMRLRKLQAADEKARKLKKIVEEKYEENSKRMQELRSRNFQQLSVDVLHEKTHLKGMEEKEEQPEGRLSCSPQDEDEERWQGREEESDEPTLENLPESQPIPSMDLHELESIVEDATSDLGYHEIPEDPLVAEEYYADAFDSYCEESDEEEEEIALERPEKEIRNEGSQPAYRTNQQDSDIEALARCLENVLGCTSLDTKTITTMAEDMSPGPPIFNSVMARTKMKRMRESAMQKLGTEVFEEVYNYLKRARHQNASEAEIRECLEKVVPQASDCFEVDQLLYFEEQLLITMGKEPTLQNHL

[4] = biological target: Wee1-like protein kinase (Homo sapiens) (UniProt P30291)
[5] = biological target: T2, Protein kinase C iota type (Homo sapiens) (UniProt P41743)
T2 sequence (whole entry): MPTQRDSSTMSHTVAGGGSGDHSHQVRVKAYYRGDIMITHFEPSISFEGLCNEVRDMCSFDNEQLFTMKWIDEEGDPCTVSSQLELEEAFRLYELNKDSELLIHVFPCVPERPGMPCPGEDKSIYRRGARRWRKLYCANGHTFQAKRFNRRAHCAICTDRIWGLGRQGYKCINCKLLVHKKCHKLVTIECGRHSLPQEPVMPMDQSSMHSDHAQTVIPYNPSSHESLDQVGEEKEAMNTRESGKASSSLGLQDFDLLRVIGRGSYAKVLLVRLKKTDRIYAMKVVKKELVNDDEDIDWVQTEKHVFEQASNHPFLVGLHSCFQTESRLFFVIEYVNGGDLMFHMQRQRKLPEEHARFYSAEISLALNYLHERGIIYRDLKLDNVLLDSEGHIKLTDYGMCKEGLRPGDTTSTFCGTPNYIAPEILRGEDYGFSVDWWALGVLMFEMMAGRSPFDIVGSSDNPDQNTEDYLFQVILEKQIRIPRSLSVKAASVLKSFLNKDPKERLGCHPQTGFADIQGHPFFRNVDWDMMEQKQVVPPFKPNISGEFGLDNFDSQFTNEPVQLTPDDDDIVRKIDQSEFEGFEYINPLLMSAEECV

[6] = biological target: Cyclin-dependent kinase-like 4 (Homo sapiens) (UniProt Q5MAI5)
[7] = biological target: Serine/threonine-protein kinase 16 (Homo sapiens) (UniProt O75716)
[8] = biological target: Macrophage-stimulating protein receptor (Homo sapiens) (UniProt Q04912)
[9] = biological target: Transcription initiation factor TFIID subunit 1-like (Homo sapiens) (UniProt Q8IZX4)
[10] = biological target: Cyclin-dependent kinase 2/cyclin E (Homo sapiens) (UniProt P24864+P24941+O96020)
[11] = biological target: T3, Mitogen-activated protein kinase kinase kinase 2 (Homo sapiens) (UniProt Q9Y2U5)
T3 sequence (whole entry): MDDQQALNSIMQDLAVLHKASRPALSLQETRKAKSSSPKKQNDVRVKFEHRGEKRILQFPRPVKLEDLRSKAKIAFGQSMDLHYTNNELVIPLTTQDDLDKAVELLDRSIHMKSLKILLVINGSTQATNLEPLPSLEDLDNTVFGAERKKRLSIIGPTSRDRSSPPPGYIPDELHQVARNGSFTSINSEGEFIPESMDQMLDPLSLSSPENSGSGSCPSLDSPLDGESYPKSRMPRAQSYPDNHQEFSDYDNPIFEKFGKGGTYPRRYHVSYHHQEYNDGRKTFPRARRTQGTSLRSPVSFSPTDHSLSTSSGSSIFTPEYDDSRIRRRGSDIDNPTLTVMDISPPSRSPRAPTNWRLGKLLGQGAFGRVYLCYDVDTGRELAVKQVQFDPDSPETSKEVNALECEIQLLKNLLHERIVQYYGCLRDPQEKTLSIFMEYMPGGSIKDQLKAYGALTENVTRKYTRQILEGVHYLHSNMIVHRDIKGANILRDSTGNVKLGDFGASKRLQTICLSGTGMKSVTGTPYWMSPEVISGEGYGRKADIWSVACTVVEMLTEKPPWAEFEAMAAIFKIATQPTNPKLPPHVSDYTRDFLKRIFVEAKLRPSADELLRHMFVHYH

Measured: % residual kinase activity

Chain of Macrophage-stimulating protein receptor (Homo sapiens) (Q04912 25-304 limits assumed): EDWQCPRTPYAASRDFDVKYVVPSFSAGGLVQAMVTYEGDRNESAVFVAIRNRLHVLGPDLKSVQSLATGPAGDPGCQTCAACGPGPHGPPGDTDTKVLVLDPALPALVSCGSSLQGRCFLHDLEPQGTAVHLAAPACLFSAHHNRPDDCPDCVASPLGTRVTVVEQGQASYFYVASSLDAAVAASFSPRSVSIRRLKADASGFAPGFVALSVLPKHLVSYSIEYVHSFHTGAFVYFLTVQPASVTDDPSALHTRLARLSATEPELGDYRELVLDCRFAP
Chain of Macrophage-stimulating protein receptor (Homo sapiens) (Q04912 310-1400 limits assumed): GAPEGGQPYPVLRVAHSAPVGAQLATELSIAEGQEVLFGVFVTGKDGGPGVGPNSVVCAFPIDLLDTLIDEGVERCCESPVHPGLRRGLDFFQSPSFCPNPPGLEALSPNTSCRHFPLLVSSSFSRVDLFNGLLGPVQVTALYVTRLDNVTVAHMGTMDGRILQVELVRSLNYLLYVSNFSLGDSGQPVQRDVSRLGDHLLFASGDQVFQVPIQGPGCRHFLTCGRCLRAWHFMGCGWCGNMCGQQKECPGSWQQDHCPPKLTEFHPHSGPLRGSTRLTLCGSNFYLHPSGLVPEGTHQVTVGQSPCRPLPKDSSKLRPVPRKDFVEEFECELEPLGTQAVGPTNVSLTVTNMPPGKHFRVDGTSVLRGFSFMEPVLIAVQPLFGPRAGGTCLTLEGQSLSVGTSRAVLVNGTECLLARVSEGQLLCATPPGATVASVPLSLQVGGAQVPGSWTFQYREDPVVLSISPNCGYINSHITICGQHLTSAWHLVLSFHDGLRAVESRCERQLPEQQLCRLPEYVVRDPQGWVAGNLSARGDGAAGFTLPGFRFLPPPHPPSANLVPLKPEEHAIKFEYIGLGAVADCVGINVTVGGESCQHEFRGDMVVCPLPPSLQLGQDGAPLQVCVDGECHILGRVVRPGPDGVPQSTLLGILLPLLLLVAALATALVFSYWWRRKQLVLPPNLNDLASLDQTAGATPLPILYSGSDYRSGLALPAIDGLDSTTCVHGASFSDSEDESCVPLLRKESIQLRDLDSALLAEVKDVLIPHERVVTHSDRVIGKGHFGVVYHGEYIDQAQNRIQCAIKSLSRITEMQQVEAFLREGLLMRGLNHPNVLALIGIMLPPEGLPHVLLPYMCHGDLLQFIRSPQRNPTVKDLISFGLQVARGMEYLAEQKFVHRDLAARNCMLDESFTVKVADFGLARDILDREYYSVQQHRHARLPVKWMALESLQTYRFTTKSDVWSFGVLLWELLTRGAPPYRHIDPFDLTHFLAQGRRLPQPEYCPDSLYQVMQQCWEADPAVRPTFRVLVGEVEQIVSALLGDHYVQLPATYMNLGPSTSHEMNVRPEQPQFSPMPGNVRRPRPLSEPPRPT
Chain of Serine/threonine-protein kinase 16 (Homo sapiens) (O75716 whole entry): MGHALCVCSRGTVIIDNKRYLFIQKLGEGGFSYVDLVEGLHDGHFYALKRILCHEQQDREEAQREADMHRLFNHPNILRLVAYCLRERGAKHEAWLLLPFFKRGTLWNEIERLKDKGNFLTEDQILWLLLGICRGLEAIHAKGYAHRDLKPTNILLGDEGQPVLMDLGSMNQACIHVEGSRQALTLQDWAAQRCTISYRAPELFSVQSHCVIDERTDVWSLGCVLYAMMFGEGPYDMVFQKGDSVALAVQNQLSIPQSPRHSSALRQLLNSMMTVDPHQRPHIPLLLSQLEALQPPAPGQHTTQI
Chain of Cyclin-dependent kinase-like 4 (Homo sapiens) (Q5MAI5 whole entry): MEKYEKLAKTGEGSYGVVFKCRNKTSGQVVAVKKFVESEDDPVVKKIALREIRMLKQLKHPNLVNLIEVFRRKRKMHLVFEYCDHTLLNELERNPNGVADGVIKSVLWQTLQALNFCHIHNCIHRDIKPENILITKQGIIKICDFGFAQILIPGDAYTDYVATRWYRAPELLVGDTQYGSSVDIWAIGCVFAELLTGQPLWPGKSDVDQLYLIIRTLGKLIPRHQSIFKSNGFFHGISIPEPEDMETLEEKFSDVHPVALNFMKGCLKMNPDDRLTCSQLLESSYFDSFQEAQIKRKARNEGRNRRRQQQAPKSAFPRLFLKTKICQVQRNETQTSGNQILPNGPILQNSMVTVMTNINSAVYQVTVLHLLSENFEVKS
Chain of Dual specificity protein kinase CLK3 (Homo sapiens) (P49761 whole entry, looked up): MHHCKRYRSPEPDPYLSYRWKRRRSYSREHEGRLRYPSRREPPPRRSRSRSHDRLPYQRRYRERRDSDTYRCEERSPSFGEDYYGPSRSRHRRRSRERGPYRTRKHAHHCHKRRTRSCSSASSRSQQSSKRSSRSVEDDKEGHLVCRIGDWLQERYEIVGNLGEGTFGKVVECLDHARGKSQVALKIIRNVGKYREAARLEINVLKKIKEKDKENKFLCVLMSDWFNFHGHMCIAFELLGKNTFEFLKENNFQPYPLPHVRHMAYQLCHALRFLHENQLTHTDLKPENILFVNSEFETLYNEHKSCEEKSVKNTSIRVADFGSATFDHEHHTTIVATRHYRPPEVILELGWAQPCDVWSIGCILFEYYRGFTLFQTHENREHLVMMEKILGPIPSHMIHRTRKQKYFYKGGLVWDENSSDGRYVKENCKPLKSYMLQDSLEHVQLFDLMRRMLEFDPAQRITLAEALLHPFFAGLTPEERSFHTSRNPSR
Chain of Wee1-like protein kinase (Homo sapiens) (P30291 whole entry, looked up): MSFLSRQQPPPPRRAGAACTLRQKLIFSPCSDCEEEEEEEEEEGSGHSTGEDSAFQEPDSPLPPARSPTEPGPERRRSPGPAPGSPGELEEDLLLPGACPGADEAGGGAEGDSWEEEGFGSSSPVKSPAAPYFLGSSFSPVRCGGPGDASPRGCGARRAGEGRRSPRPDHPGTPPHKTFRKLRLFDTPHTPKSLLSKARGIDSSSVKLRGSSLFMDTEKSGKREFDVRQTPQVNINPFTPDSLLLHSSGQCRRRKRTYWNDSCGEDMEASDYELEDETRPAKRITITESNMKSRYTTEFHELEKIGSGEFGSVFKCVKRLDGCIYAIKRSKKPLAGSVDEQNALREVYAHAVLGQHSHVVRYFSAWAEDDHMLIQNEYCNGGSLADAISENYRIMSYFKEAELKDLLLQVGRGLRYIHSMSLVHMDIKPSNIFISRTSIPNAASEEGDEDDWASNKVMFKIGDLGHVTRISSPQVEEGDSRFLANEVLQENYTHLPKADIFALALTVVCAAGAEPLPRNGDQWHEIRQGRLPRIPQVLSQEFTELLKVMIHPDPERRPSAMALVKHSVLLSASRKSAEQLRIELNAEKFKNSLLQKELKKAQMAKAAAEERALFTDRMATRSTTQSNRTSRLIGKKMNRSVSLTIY
Chain of Transcription initiation factor TFIID subunit 1-like (Homo sapiens) (Q8IZX4 whole entry): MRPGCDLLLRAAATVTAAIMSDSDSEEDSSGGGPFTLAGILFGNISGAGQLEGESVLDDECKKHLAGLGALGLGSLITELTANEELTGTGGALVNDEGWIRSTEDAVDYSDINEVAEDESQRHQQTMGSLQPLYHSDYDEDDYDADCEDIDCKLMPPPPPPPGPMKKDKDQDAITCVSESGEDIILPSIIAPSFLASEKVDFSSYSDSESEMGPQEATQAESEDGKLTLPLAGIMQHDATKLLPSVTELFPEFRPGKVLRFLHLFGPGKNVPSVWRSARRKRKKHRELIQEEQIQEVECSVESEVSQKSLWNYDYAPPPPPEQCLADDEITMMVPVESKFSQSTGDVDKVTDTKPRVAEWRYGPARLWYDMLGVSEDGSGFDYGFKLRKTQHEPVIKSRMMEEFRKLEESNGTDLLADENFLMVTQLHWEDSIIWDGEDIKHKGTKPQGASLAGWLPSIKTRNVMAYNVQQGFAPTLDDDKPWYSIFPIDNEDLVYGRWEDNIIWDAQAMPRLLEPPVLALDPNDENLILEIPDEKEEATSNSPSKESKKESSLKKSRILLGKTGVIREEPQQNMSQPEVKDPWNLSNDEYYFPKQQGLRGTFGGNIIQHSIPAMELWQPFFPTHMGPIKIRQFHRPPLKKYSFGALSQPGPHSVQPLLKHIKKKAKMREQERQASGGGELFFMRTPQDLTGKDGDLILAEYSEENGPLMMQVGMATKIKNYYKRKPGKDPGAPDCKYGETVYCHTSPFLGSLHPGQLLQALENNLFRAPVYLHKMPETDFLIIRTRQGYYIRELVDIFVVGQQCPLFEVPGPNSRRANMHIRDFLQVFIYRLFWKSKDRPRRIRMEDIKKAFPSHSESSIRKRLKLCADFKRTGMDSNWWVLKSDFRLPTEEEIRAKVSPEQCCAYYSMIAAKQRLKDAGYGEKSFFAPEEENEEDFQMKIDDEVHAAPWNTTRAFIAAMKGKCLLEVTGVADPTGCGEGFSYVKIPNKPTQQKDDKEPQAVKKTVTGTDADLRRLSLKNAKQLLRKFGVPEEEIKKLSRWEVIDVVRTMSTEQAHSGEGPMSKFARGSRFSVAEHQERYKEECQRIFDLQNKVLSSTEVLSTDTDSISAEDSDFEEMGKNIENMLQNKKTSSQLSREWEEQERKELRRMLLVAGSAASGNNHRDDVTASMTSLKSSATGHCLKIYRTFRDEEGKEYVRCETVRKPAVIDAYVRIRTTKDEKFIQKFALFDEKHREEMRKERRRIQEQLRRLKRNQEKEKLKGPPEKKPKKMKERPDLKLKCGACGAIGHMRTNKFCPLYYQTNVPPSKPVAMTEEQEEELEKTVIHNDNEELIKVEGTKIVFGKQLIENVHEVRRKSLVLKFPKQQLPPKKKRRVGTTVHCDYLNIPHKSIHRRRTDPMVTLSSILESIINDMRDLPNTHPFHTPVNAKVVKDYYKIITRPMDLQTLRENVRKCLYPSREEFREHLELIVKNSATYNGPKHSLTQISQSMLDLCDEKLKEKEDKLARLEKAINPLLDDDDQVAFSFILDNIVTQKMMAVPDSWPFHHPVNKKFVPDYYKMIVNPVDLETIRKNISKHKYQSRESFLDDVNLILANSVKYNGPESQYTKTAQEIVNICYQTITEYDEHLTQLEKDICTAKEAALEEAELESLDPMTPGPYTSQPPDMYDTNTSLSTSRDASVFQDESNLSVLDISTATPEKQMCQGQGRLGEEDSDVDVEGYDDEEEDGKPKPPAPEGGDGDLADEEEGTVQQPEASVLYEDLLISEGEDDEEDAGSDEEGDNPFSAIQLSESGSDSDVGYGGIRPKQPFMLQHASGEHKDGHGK

CN1CCN(c2cnc3c(C4CCN(C(=O)c5ccc(OC(F)(F)F)cc5N)CC4)ncnc3c2)CC1 [BAY-885]
inactive: [1] 111% | [2] 89% | [3] 104% | [4] 108% | [5] 102% | [6] 103% | [7] 99% | [8] 100% | [9] 120% | [10] 99% | [11] 116%
